No end group written: not given here. *: point of attachment. FITC = O=C1OC2(c3ccc(O)cc3Oc3cc(O)ccc32)c2ccc(NC(=S)*)cc21
Legend:
[1] = test system: XIAP positive cell lines (H460, 786-O, EJ, RT112); experiment: CLSM imaging of cells coincubated with MDS molecules, XIAP positive cell lines; type: cell-based; conditions: 50 μM, 37 °C, 1 h, PBS washing
Description: (§1) Drug delivery efficacy is one of the decisive factors for evaluating the drug delivery systems.
In order to evaluate the drug delivery efficacy, we directly observed the Py fluorescence by CLSM imaging. […] In addition, we performed the cell section analysis and directly observed the morphology of assemblies intracellularly (Figure 8D). The intracellular formed nanofibers confirmed the controllable in situ assembly of MDS. All those results verified that the drug delivery system was feasible for highly efficient drug delivery.
Cell culturing and CLSM imaging: H460, 786-O, L929 cell lines and EJ, RT112 cell lines were cultured in PRMI-1640 and DMEM respectively with 10% (v: v) fetal bovine serum, 1% penicillin–streptomycin in an incubator (Thermo Scientific) at 37 °C with 5% CO2 and 95% relative humidity. For observing the selectivity of MDS by CLSM imaging, all the cell lines were seeded with 1 x 10^5 cells per well, and cultured for 24 h, the cells were incubated with 50 μM Pβ-R4C and Pβ-R4F respectively at 37 °C for 1 h and followed by PBS washing. Subsequently, the cells were stained with Hoechst 33342 (1 mg ml^-1) at 37 °C for 10 min. Finally, the cells were washed by PBS twice and immediately observed under confocal laser scanning microscopy. […]

[2] = test system: XIAP negative cell line L929; experiment: CLSM imaging of cells coincubated with MDS molecules, XIAP negative cell line; type: cell-based; conditions: 50 μM, 37 °C, 1 h, PBS washing
Procedure: as §1
Cell culturing and CLSM imaging: H460, 786-O, L929 cell lines and EJ, RT112 cell lines were cultured in PRMI-1640 and DMEM respectively with 10% (v: v) fetal bovine serum, 1% penicillin–streptomycin in an incubator (Thermo Scientific) at 37 °C with 5% CO2 and 95% relative humidity. For observing the selectivity of MDS by CLSM imaging, all the cell lines were seeded with 1 x 10^5 cells per well, and cultured for 24 h, the cells were incubated with 50 μM Pβ-R4C and Pβ-R4F respectively at 37 °C for 1 h and followed by PBS washing. Subsequently, the cells were stained with Hoechst 33342 (1 mg ml^-1) at 37 °C for 10 min. Finally, the cells were washed by PBS twice and immediately observed under confocal laser scanning microscopy. For observing the selective drug accumulation by CLSM imaging, the H460 cell and L929 cells were seeded with 1 x 10^5 cells per well, and cultured for 24 h, then cells were incubated with 50 μM Pβ-R4C-D for 1 h, followed by PBS washing and observed by CLSM.

[3] = ThT (Thioflavin T) assay, critical aggregation/assembly concentration and dispersibility; type: physicochemical; conditions: dose dependent assembling profile after incubation with ThT, Figure 3A
Procedure: For intracellular self-assembly, the rapid transformation from dispersed state to aggregate state in desired site is required. In other words, the molecules need to be stable monomeric states at other locations and present self-assembled states at the required locations. Therefore, location-specific self-assembly characteristics are the decisive factors for the success of molecular design. […] Then, different modification on four domains were carried out to evaluate its dispersity and self-assembly properties. We carried out ThT (Thioflavin T) analytic assay to evaluate whether those predesigned molecules presented relatively dispersed state. ThT is a sensitive probe to the lamellar β-sheet structure. When exposed to the lamellar β-sheet structure, ThT fluorescence was enhanced due to inserting into the lamellar structure.^[ [17] ^] […] In order to validate our hypophysis and quantitively determine the solubility of those molecules, we calculated the critical assembly concentration (CAC) of those molecules based on the ThT analysis. […] However, other molecules with R4 domain modifications all presented a higher CAC with ≥400 μM. […] ThT assay: the ThT assay was utilized to calculate the critical assembling concentration. […] Next, the fluorescence of ThT was measured with the excitation wavelength with 450 nm. Finally, the fluorescence intensity was recorded and normalized.

[4] = TEM imaging of assembled morphology and diameters; type: physicochemical; conditions: result in words
Description: To further confirm our speculation, we observe the assembled morphology of these molecules under its CAC concentrations. […] As those results indicated, the modification position of fluorescence molecules largely influenced the dispersity of designed molecules. […] As a threshold, the %SASA value around 75% distinguishes between assembly and soluble states. Thus, the optimal choice for modification position is decisive in %SASA regulation for successful molecular design.
In order to achieve a highly ordered superstructure in vivo, it is necessary to transfer the precursor with higher CAC content to the monomer with lower CAC content at the desired position under the trigger of some chemical reactions. In this work, the pre‐designed molecules trigger the conversion of precursors to monomers transformation through enzyme‐directed hydrolysis, and the substrate (DEVD) was cleaved by caspase 3/7. Due to the increased hydrophobicity and conformational changes, the resultant product further self‐assembled into the required superstructure. The previous study in this work confirmed five molecules with higher dispersity (Pβ‐R4C, Pα‐R4C, Pβ‐R4F, Pβ‐R4P, Pβ‐R4C‐D). Here, we studied the self‐assembly properties of […] related residues of these highly soluble molecules (R‐R4C, R‐R4F, R‐R4P, R‐R4C‐D).^[ [21] ^] […]

| molecular concentration at which ThT fluorescence obviously increased [3] | assembled morphology (TEM) [4] | Substance | fluorescent signal in cells (CLSM) [1] | fluorescent signal in cells (CLSM) [2] |
| --- | --- | --- | --- | --- |
|  |  | AVPIAQKDEVDKLVFFAEC(Cy)G [Pβ-R4C, Pβ with fluorescent molecule Cy linked in R4 domain] | strong Cy and FITC fluorescent signal | No obvious fluorescent signal |
|  |  | AVPIAQKDEVDKLVFFAEC(FITC)G [Pβ-R4F, Pβ with FITC in R4 domain] | strong Cy and FITC fluorescent signal | No obvious fluorescent signal |
| 200 µM | nanofibrous structures | AVPIAQKDEVDGC(Cy)KLVFFAEG [Pβ-R2C, Pβ with GC on R2 domain conjugated with Cy] |  |  |
